{"source": "patent US7951530B2", "about": "“Cyclic maltosylmaltose, cyclic maltosymaltose-forming enzyme, their preparation and uses” (Kabushiki Kaisha Hayashibara Seibutsu Kagaku Kenkyujo, priority 2003, dated 2011)", "key": {"Pancreas α-amylase": {"system": "Pancreas α-amylase", "test": "Digestibility by pancreas α-amylase", "from_the_text": "(§2) 43, 23-29 (1990), the digestibility of CMM by salivary α-amylase, artificial gastric juice, pancreas amylase, and small intestinal enzymes were investigated using the powdery hydrous crystalline CMM, obtained by the method in Experiment 14."}, "Small intestinal enzymes": {"system": "Small intestinal enzymes", "test": "Digestibility by small intestinal enzymes", "from_the_text": "as §2"}, "CMM-forming enzyme": {"system": "CMM-forming enzyme", "test": "Action on various saccharides (substrate specificity, TLC)", "assay_type": "biochemical, Arthrobacter globiformis M6", "parameters": "key: “−” means “Not changed”; “+” means “Spot of substrate is slightly decreased and other products are detected”; “++” means “Spot of substrate is markedly decreased and other products are detected”; “+++” means “Spot of substrate is virtually disappeared and other products are detected”", "conditions": "substrate 2% (w/v), one unit/g-substrate enzyme, 40° C., pH 6.0, 24 hours, TLC before and after reaction", "procedure": "Substrate specificity of CMM-forming enzyme of the present invention was investigated using various saccharides as substrates. Substrate solutions were prepared by dissolving maltose, maltotriose, maltotetraose, maltopentaose, maltohexaose, maltoheptaose, neotrehalose, trehalose, kojibiose, nigerose, […] isomaltose, isomaltotriose, panose, isopanose, maltitol, maltotriitol, α-, β- or γ-cyclodextrin, amylose, soluble starch, glycogen, pullulan or dextran into water. Each substrate solution was admixed with acetate buffer (pH 6.0) and CaCl2 to give final concentrations of 20 mM and 1 mM, respectively. […] Substrate concentration was set to 2% (w/v) and followed by the enzyme reaction at 40° C. and pH 6.0 for 24 hours. Action and the specificity of the enzyme on these saccharides were confirmed by analyzing the reaction mixture before and after the reaction by TLC described in Experiment 1."}, "[1]": {"test": "Digestibility by artificial gastric juice", "from_the_text": "as §2"}, "Salivary α-amylase": {"target": "T1, Salivary α-amylase (Homo sapiens, UniProt P0DUB6)", "T1 sequence (P0DUB6 16-511)": "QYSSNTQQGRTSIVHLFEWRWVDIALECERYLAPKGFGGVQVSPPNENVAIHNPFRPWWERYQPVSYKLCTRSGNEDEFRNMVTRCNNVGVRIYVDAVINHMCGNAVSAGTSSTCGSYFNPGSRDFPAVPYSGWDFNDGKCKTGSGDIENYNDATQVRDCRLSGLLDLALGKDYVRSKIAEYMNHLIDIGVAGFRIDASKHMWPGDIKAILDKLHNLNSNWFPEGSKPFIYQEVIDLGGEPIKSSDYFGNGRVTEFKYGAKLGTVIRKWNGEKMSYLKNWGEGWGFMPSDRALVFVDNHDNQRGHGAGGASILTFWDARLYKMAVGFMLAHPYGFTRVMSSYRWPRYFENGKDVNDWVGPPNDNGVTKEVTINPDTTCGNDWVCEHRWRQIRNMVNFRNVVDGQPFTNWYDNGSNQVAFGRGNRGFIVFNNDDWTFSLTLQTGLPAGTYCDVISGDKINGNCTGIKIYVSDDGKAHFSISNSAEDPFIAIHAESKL", "test": "Digestibility by salivary α-amylase", "from_the_text": "as §2"}, "[2]": {"test": "Amino-carbonyl reaction with glycine", "assay_type": "physicochemical", "conditions": "[…] (w/v) saccharide, 0.5% (w/v) glycine, pH 8.0, 100° C.", "procedure": "(§1) As a control, an aqueous solution containing maltose and glycine was prepared in the same manner using maltose except for the powdery hydrous crystalline CMM. Four milliliters each of the solution was put in a glass tube, sealed and then heated at 100° C. for 30, 60, or 90 min. After cooling the solutions, the degrees of coloring of the solutions were measured to estimate the degree of amino-carbonyl reaction. The degree of coloring was defined as an absorbance at 480 nm using a 1 cm-cell."}, "[3]": {"test": "Amino-carbonyl reaction with polypeptone", "assay_type": "physicochemical", "conditions": "5% (w/v) saccharide, 5% (w/v) polypeptone, 120° C., blank subtracted", "procedure": "as §1, with “polypeptone” for “glycine”, “120°” for “100°”, “reaction. As a blank test, a solution containing polypeptone only was heated in the same manner.” for “reaction.”, “cm-cell after subtracting the absorbance of the blank test.” for “cm-cell.”"}, "[4]": {"test": "Optimum temperature and optimum pH of the enzyme reaction", "assay_type": "biochemical, Arthrobacter globiformis M6", "procedure": "The enzyme activity of CMM-forming enzyme of the present invention can be assayed as follows: A substrate solution is prepared by dissolving soluble starch in 50 mM acetate buffer (pH 6.0) containing 2 mM CaCl2 to give a concentration of 2% (w/v). A half milliliter of an enzyme solution is added to 0.5 ml of the substrate solution, and the mixture solution is incubated at 40° C. for 30 min. After stopping the reaction by heating at about 100° C. for 10 min, the reaction mixture is admixed with 4,000 units/g-solid of α-glucosidase and 250 units/g-solid of glucoamylase to hydrolyze remaining soluble starch and by-products, oligosaccharides, and followed by the enzyme treatment at 50° C. for 1 hour. The amount of CMM contained in the treated mixture is determined by HPLC described later in Experiment 1. One unit activity of CMM-forming enzyme is defined as the amount of enzyme which forms one μmole of CMM per minute under the above conditions.\nThe results are in FIG. 5 (Optimum temperature) and in FIG. 6 (Optimum pH), respectively."}, "[5]": {"test": "Isoelectric point of CMM-forming enzyme", "assay_type": "physicochemical, Arthrobacter globiformis M6", "method": "The purified enzyme preparation of CMM-forming enzyme, obtained by the method in Experiment 4, was subjected to polyacrylamide gel isoelectrofocusing containing 2% (w/v) “AMPHOLINE”, a carrier ampholyte commercialized by Amersham Biosciences, Tokyo, Japan and isoelectric point of CMM-forming enzyme was measured compare with isoelectric point markers, commercialized by Amersham Biosciences, Tokyo, Japan."}, "[6]": {"conditions": "recombinant enzyme purified from transformant BMB1"}}}
{"molecule": "OC[C@@H](O)[C@@H](O[C@H]1O[C@H](CO)[C@@H](O)[C@H](O)[C@H]1O)[C@H](O)[C@@H](O)CO", "note": "[Maltitol, maltitol]", "values": [{"measurement": "Degradation rate (%)", "setting": "Pancreas α-amylase", "value": 0, "unit": "%"}, {"measurement": "Degradation rate (%)", "setting": "Small intestinal enzymes", "value": 4, "unit": "%"}, {"measurement": "Action", "setting": "CMM-forming enzyme", "value": "−"}, {"measurement": "Degradation rate (%)", "setting": "[1]", "value": 0, "unit": "%"}, {"measurement": "Degradation rate (%)", "setting": "Salivary α-amylase", "value": 0, "unit": "%"}]}
{"molecule": "OC[C@H]1O[C@H](O[C@H]2[C@H](O)[C@@H](O)C(O)O[C@@H]2CO)[C@H](O)[C@@H](O)[C@@H]1O", "note": "(mixture of isomers) [Maltose, maltose]", "values": [{"measurement": "Degree of coloring (A480 nm)", "setting": "[2]; heating time 0 min", "value": 0.00}, {"measurement": "Degree of coloring (A480 nm)", "setting": "[2]; heating time 30 min", "value": 0.02}, {"measurement": "Degree of coloring (A480 nm)", "setting": "[2]; heating time 60 min", "value": 0.08}, {"measurement": "Degree of coloring (A480 nm)", "setting": "[2]; heating time 90 min", "value": 0.17}, {"measurement": "Action", "setting": "CMM-forming enzyme", "value": "−"}, {"measurement": "Degree of coloring (A480 nm)", "setting": "[3]; heating time 0 min", "value": 0.00}, {"measurement": "Degree of coloring (A480 nm)", "setting": "[3]; heating time 30 min", "value": 0.10}, {"measurement": "Degree of coloring (A480 nm)", "setting": "[3]; heating time 60 min", "value": 0.30}, {"measurement": "Degree of coloring (A480 nm)", "setting": "[3]; heating time 90 min", "value": 0.62}]}
{"molecule": "CMM-forming enzyme: enzyme from Arthrobacter globiformis M6 acting on α-1,4 glucans of polymerization degree 3 or higher to form CMM; SEQ ID NO:2 (protein, listed as Arthrobacter globiformis) DPTTSPGPLAEGDVIYQVLVDRFEDGDPTNNDQGDGEYDPSDLGFYHGGDWAGLTDRLDYIADLGVTAIWLSPVSEQQPLSRDGLEASYHGYFTRDFATPNEHFGDRAELQELIDTAHDLGLKMILDVVPNHTADYLAGTSTTYSPSTYKPASPLDDASYFHHAGDCLFNGLETQTQIENCDLGGLDDLDQSNPVVSSHLMSTYKDWVDMGFDGIRVDAARSVPKPWLADFEAEMGVPTFGEVFVGDVDYVSEYQDYEWGVLDFPYFFTVREAFSADTDMNKLGDLFDQDSKYANPNRLETFLDNHDRARFLTWADDNYQRLRSGLTFLLTSRGVPVIYYGTEQADDGNGNPYEVPIANKDNRKDMESFDQNSNLYKHIQRLTAIKAAYPALQVGTQREMWSDTSVYGFSRRVDSTGAEAMTFSSNSWTTQTRTVPLRAESSITVGTTLTNLMNTGDTVTVTAGGVTGKQITVSLGEHESKVYAPGTPVSAYSPEARNTTKIRVHYNVGLGHSIAIRGDEYPFTWTSGRGARNVASDVWEFEVERIPDGETFQFKPLIDDVTWSTGGNFTGTGGDVIDIYPTF", "values": [{"measurement": "optimum pH", "setting": "[4]; purified enzyme from M6, reacted at 40° C. for 30 min", "value": "5.5 to 6.5"}, {"measurement": "optimum temperature", "setting": "[4]; purified enzyme from M6, reacted at pH 6.0 for 30 min", "value": "50 to 55", "unit": "°C"}, {"measurement": "optimum pH", "setting": "[4]; [6]", "value": "5.5 to 6.5"}, {"measurement": "optimum temperature of CMM-forming enzyme activity", "setting": "[4]; [6]", "value": "50 to 55", "unit": "°C"}, {"measurement": "isoelectric point (pI)", "setting": "[5]; purified enzyme from Arthrobacter globiformis M6, polyacrylamide gel isoelectrofocusing", "value": "3.6±0.5"}, {"measurement": "isoelectric point", "setting": "[5]; [6]", "value": "about 3.6±0.5"}]}
